8 molecules from patent US5620958A, “Bradykinin antagonists” (Coretech, Inc., priority 1994, dated 1997) can be followed below.

The target of one assay is T1, NK1 receptor (Cavia porcellus, UniProt P30547).
T1 construct: a standard guinea pig ileum assay of NK1 receptor activity; from tissue; host or cells: guinea pig ileum
Briefly: guinea pig ileum assay of NK1 receptor activity against substance P. It counts as cell-based. The following applies: Table O; for Kb: read-out: NK1 : GPI pA2 (± s.e.m.) (converted). The text has this:
In order to illustrate the potential of blocking two different receptor populations with a single compound a consensus NK1 receptor antagonist (DArg-DPro-Lys-Pro-Gln-Asn-DPhe-Phe-DTrp-Leu-Nle) was synthesized. […] Once the activity of this reference ligand was established, a series of lysine containing monomers formed by the systematic substitution of a lysine residue sequentially through the reference peptide was synthesized.

Another assay has as its target T2, BK2 receptor (Rattus norvegicus, UniProt P25023).
T2 sequence (P25023 1-396): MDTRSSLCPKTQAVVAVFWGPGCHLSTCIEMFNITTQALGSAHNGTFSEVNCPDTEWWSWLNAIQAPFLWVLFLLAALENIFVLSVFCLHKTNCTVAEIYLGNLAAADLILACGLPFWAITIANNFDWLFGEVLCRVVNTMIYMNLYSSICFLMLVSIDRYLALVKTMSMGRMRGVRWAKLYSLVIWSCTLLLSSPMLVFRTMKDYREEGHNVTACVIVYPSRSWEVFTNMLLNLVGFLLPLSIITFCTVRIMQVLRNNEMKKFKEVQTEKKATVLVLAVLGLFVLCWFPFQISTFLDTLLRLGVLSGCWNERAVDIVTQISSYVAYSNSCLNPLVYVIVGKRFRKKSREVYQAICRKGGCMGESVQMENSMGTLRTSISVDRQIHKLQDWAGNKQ
Briefly: cell-based.

Peptide text beside a SMILES is read from it.

T1 sequence (P30547 whole entry): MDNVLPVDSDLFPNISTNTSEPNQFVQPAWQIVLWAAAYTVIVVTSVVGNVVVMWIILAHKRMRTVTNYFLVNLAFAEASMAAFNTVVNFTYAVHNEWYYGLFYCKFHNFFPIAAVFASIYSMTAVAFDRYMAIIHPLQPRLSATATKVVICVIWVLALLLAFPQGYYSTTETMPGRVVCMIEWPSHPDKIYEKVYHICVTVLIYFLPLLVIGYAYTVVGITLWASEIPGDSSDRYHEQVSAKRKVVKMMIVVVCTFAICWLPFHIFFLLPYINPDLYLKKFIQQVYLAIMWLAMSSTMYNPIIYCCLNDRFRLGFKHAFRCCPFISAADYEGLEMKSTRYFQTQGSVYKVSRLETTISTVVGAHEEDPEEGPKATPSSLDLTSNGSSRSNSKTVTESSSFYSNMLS

Take `CCCC[C@H](NC(=O)[C@H](CC(C)C)NC(=O)[C@@H](Cc1c[nH]c2ccccc12)NC(=O)[C@H](Cc1ccccc1)NC(=O)[C@@H](Cc1ccccc1)NC(=O)[C@H](CC(N)=O)NC(=O)[C@H](CCC(N)=O)NC(=O)[C@@H]1CCCN1C(=O)[C@H](CCCCNC(=O)CCCCCN1C(=O)CC(SC[C@H](NC(=O)[C@H](Cc2ccccc2)NC(=O)CNC(=O)[C@@H]2C[C@@H](O)CN2C(=O)[C@@H]2CCCN2C(=O)[C@H](CCCNC(=N)N)NC(=O)[C@H](N)CCCNC(=N)N)C(=O)N[C@H](Cc2ccccc2)C(=O)N[C@@H](CC(C)C)C(=O)N[C@@H](CCCNC(=N)N)C(=O)O)C1=O)NC(=O)[C@H]1CCCN1C(=O)[C@H](N)CCCNC(=N)N)C(N)=O` (stereo partly shown) [CP-0392] (HELM PEPTIDE1{[dR].[dP].K.P.Q.N.[dF].F.[dW].L.[Nle].[am]}|PEPTIDE2{[dR].R.P.[Hyp].G.F.C.[dF].L.R}|CHEM1{[O=C1CC([*:2])C(=O)N1CCCCCC(=O)[*:1]]}$PEPTIDE1,CHEM1,3:R3-1:R1|PEPTIDE2,CHEM1,7:R3-1:R2$$$V2.0): the values for the Kb at NK1 receptor and at BK2 receptor were 5.01 µM and 0.1 µM, respectively.

For `CCCC[C@H](NC(=O)[C@H](CC(C)C)NC(=O)[C@@H](Cc1c[nH]c2ccccc12)NC(=O)[C@H](Cc1ccccc1)NC(=O)[C@@H](Cc1ccccc1)NC(=O)[C@H](CC(N)=O)NC(=O)[C@H](CCC(N)=O)NC(=O)[C@H](CCCCNC(=O)CCCCCN1C(=O)CC(SC[C@H](NC(=O)[C@H](Cc2ccccc2)NC(=O)CNC(=O)[C@@H]2C[C@@H](O)CN2C(=O)[C@@H]2CCCN2C(=O)[C@H](CCCNC(=N)N)NC(=O)[C@H](N)CCCNC(=N)N)C(=O)N[C@H](Cc2ccccc2)C(=O)N[C@@H](CC(C)C)C(=O)N[C@@H](CCCNC(=N)N)C(=O)O)C1=O)NC(=O)[C@H](CCCCN)NC(=O)[C@H]1CCCN1C(=O)[C@H](N)CCCNC(=N)N)C(N)=O` (stereo partly shown) [CP-0393] (HELM PEPTIDE1{[dR].[dP].K.K.Q.N.[dF].F.[dW].L.[Nle].[am]}|PEPTIDE2{[dR].R.P.[Hyp].G.F.C.[dF].L.R}|CHEM1{[O=C1CC([*:2])C(=O)N1CCCCCC(=O)[*:1]]}$PEPTIDE1,CHEM1,4:R3-1:R1|PEPTIDE2,CHEM1,7:R3-1:R2$$$V2.0), the Kb was 3.16 µM at NK1 receptor and 0.0398 µM at BK2 receptor.

For the molecule `CCCC[C@H](NC(=O)[C@H](CC(C)C)NC(=O)[C@@H](Cc1c[nH]c2ccccc12)NC(=O)[C@H](Cc1ccccc1)NC(=O)[C@@H](Cc1ccccc1)NC(=O)[C@H](CC(N)=O)NC(=O)[C@H](CCCCNC(=O)CCCCCN1C(=O)CC(SC[C@H](NC(=O)[C@H](Cc2ccccc2)NC(=O)CNC(=O)[C@@H]2C[C@@H](O)CN2C(=O)[C@@H]2CCCN2C(=O)[C@H](CCCNC(=N)N)NC(=O)[C@H](N)CCCNC(=N)N)C(=O)N[C@H](Cc2ccccc2)C(=O)N[C@@H](CC(C)C)C(=O)N[C@@H](CCCNC(=N)N)C(=O)O)C1=O)NC(=O)[C@@H]1CCCN1C(=O)[C@H](CCCCN)NC(=O)[C@H]1CCCN1C(=O)[C@H](N)CCCNC(=N)N)C(N)=O` (stereo partly shown) [CP-0394] (HELM PEPTIDE1{[dR].[dP].K.P.K.N.[dF].F.[dW].L.[Nle].[am]}|PEPTIDE2{[dR].R.P.[Hyp].G.F.C.[dF].L.R}|CHEM1{[O=C1CC([*:2])C(=O)N1CCCCCC(=O)[*:1]]}$PEPTIDE1,CHEM1,5:R3-1:R1|PEPTIDE2,CHEM1,7:R3-1:R2$$$V2.0), the Kb on NK1 receptor was 1.58 µM; on BK2 receptor, 0.0126 µM.

As to `CCCC[C@H](NC(=O)[C@H](CC(C)C)NC(=O)[C@@H](Cc1c[nH]c2ccccc12)NC(=O)[C@H](Cc1ccccc1)NC(=O)[C@@H](Cc1ccccc1)NC(=O)[C@H](CCCCNC(=O)CCCCCN1C(=O)CC(SC[C@H](NC(=O)[C@H](Cc2ccccc2)NC(=O)CNC(=O)[C@@H]2C[C@@H](O)CN2C(=O)[C@@H]2CCCN2C(=O)[C@H](CCCNC(=N)N)NC(=O)[C@H](N)CCCNC(=N)N)C(=O)N[C@H](Cc2ccccc2)C(=O)N[C@@H](CC(C)C)C(=O)N[C@@H](CCCNC(=N)N)C(=O)O)C1=O)NC(=O)[C@H](CCC(N)=O)NC(=O)[C@@H]1CCCN1C(=O)[C@H](CCCCN)NC(=O)[C@H]1CCCN1C(=O)[C@H](N)CCCNC(=N)N)C(N)=O` (stereo partly shown) [CP-0395] (HELM PEPTIDE1{[dR].[dP].K.P.Q.K.[dF].F.[dW].L.[Nle].[am]}|PEPTIDE2{[dR].R.P.[Hyp].G.F.C.[dF].L.R}|CHEM1{[O=C1CC([*:2])C(=O)N1CCCCCC(=O)[*:1]]}$PEPTIDE1,CHEM1,6:R3-1:R1|PEPTIDE2,CHEM1,7:R3-1:R2$$$V2.0), the Kb on NK1 receptor is 0.501 µM; on BK2 receptor, 0.0501 µM.

With `CCCC[C@H](NC(=O)[C@H](CC(C)C)NC(=O)[C@@H](Cc1c[nH]c2ccccc12)NC(=O)[C@H](Cc1ccccc1)NC(=O)[C@H](CCCCNC(=O)CCCCCN1C(=O)CC(SC[C@H](NC(=O)[C@H](Cc2ccccc2)NC(=O)CNC(=O)[C@@H]2C[C@@H](O)CN2C(=O)[C@@H]2CCCN2C(=O)[C@H](CCCNC(=N)N)NC(=O)[C@H](N)CCCNC(=N)N)C(=O)N[C@H](Cc2ccccc2)C(=O)N[C@@H](CC(C)C)C(=O)N[C@@H](CCCNC(=N)N)C(=O)O)C1=O)NC(=O)[C@H](CC(N)=O)NC(=O)[C@H](CCC(N)=O)NC(=O)[C@@H]1CCCN1C(=O)[C@H](CCCCN)NC(=O)[C@H]1CCCN1C(=O)[C@H](N)CCCNC(=N)N)C(N)=O` (stereo partly shown) [CP-0396] (HELM PEPTIDE1{[dR].[dP].K.P.Q.N.K.F.[dW].L.[Nle].[am]}|PEPTIDE2{[dR].R.P.[Hyp].G.F.C.[dF].L.R}|CHEM1{[O=C1CC([*:2])C(=O)N1CCCCCC(=O)[*:1]]}$PEPTIDE1,CHEM1,7:R3-1:R1|PEPTIDE2,CHEM1,7:R3-1:R2$$$V2.0), the “NK1 : GPI pA2 (± s.e.m.)” value at NK1 receptor was “Inactive”. On BK2 receptor, this molecule showed a Kb of 0.01 µM.

As for `CCCC[C@H](NC(=O)[C@H](CC(C)C)NC(=O)[C@@H](Cc1c[nH]c2ccccc12)NC(=O)[C@H](CCCCNC(=O)CCCCCN1C(=O)CC(SC[C@H](NC(=O)[C@H](Cc2ccccc2)NC(=O)CNC(=O)[C@@H]2C[C@@H](O)CN2C(=O)[C@@H]2CCCN2C(=O)[C@H](CCCNC(=N)N)NC(=O)[C@H](N)CCCNC(=N)N)C(=O)N[C@H](Cc2ccccc2)C(=O)N[C@@H](CC(C)C)C(=O)N[C@@H](CCCNC(=N)N)C(=O)O)C1=O)NC(=O)[C@@H](Cc1ccccc1)NC(=O)[C@H](CC(N)=O)NC(=O)[C@H](CCC(N)=O)NC(=O)[C@@H]1CCCN1C(=O)[C@H](CCCCN)NC(=O)[C@H]1CCCN1C(=O)[C@H](N)CCCNC(=N)N)C(N)=O` (stereo partly shown) [CP-0397] (HELM PEPTIDE1{[dR].[dP].K.P.Q.N.[dF].K.[dW].L.[Nle].[am]}|PEPTIDE2{[dR].R.P.[Hyp].G.F.C.[dF].L.R}|CHEM1{[O=C1CC([*:2])C(=O)N1CCCCCC(=O)[*:1]]}$PEPTIDE1,CHEM1,8:R3-1:R1|PEPTIDE2,CHEM1,7:R3-1:R2$$$V2.0), the “NK1 : GPI pA2 (± s.e.m.)” value at NK1 receptor is listed as “Inactive”. The molecule also showed a Kb at BK2 receptor of 0.02 µM.

`CCCC[C@H](NC(=O)[C@H](CC(C)C)NC(=O)[C@H](CCCCNC(=O)CCCCCN1C(=O)CC(SC[C@H](NC(=O)[C@H](Cc2ccccc2)NC(=O)CNC(=O)[C@@H]2C[C@@H](O)CN2C(=O)[C@@H]2CCCN2C(=O)[C@H](CCCNC(=N)N)NC(=O)[C@H](N)CCCNC(=N)N)C(=O)N[C@H](Cc2ccccc2)C(=O)N[C@@H](CC(C)C)C(=O)N[C@@H](CCCNC(=N)N)C(=O)O)C1=O)NC(=O)[C@H](Cc1ccccc1)NC(=O)[C@@H](Cc1ccccc1)NC(=O)[C@H](CC(N)=O)NC(=O)[C@H](CCC(N)=O)NC(=O)[C@@H]1CCCN1C(=O)[C@H](CCCCN)NC(=O)[C@H]1CCCN1C(=O)[C@H](N)CCCNC(=N)N)C(N)=O` (stereo partly shown) [CP-0398] (HELM PEPTIDE1{[dR].[dP].K.P.Q.N.[dF].F.K.L.[Nle].[am]}|PEPTIDE2{[dR].R.P.[Hyp].G.F.C.[dF].L.R}|CHEM1{[O=C1CC([*:2])C(=O)N1CCCCCC(=O)[*:1]]}$PEPTIDE1,CHEM1,9:R3-1:R1|PEPTIDE2,CHEM1,7:R3-1:R2$$$V2.0): at NK1 receptor, the “NK1 : GPI pA2 (± s.e.m.)” value is reported as “Inactive”. At BK2 receptor, this molecule gave a Kb of 0.398 µM.

On to `CCCC[C@H](NC(=O)[C@H](CCCCNC(=O)CCCCCN1C(=O)CC(SC[C@H](NC(=O)[C@H](Cc2ccccc2)NC(=O)CNC(=O)[C@@H]2C[C@@H](O)CN2C(=O)[C@@H]2CCCN2C(=O)[C@H](CCCNC(=N)N)NC(=O)[C@H](N)CCCNC(=N)N)C(=O)N[C@H](Cc2ccccc2)C(=O)N[C@@H](CC(C)C)C(=O)N[C@@H](CCCNC(=N)N)C(=O)O)C1=O)NC(=O)[C@@H](Cc1c[nH]c2ccccc12)NC(=O)[C@H](Cc1ccccc1)NC(=O)[C@@H](Cc1ccccc1)NC(=O)[C@H](CC(N)=O)NC(=O)[C@H](CCC(N)=O)NC(=O)[C@@H]1CCCN1C(=O)[C@H](CCCCN)NC(=O)[C@H]1CCCN1C(=O)[C@H](N)CCCNC(=N)N)C(N)=O` (stereo partly shown) [CP-0399] (HELM PEPTIDE1{[dR].[dP].K.P.Q.N.[dF].F.[dW].K.[Nle].[am]}|PEPTIDE2{[dR].R.P.[Hyp].G.F.C.[dF].L.R}|CHEM1{[O=C1CC([*:2])C(=O)N1CCCCCC(=O)[*:1]]}$PEPTIDE1,CHEM1,10:R3-1:R1|PEPTIDE2,CHEM1,7:R3-1:R2$$$V2.0), for which the Kb on NK1 receptor is 12.6 µM; on BK2 receptor it was 0.0398 µM.
